{"source": "ChEMBL document CHEMBL1201862", "about": "“PubChem BioAssay data set” (2004)", "assay_in_all_cases": "growth of human tumour cells (NCI), 48 h", "key": {"[1]": {"system": "786-0"}, "[2]": {"system": "A498"}, "[3]": {"system": "A549"}, "[4]": {"system": "ACHN"}, "[5]": {"system": "BT-549"}, "[6]": {"system": "CAKI-1"}, "[7]": {"system": "CCRF-CEM"}, "[8]": {"system": "COLO 205"}, "[9]": {"system": "DU-145"}, "[10]": {"system": "EKVX"}, "[11]": {"system": "HCC 2998"}, "[12]": {"system": "HCT-116"}, "[13]": {"system": "HCT-15"}, "[14]": {"system": "HL-60"}, "[15]": {"system": "HOP-62"}, "[16]": {"system": "HOP-92"}, "[17]": {"system": "HT-29"}, "[18]": {"system": "Hs-578T"}, "[19]": {"system": "IGROV-1"}, "[20]": {"system": "K562"}, "[21]": {"system": "KM12"}, "[22]": {"system": "LOX IMVI"}, "[23]": {"system": "M14"}, "[24]": {"system": "MCF7"}, "[25]": {"system": "MDA-MB-231"}, "[26]": {"system": "MDA-MB-435"}, "[27]": {"system": "MDA-N"}, "[28]": {"system": "MOLT-4"}, "[29]": {"system": "Malme-3M"}, "[30]": {"system": "NCI-H226"}, "[31]": {"system": "NCI-H23"}, "[32]": {"system": "NCI-H460"}, "[33]": {"system": "NCI-H522"}, "[34]": {"system": "NCI/ADR-RES"}, "[35]": {"system": "OVCAR-3"}, "[36]": {"system": "OVCAR-4"}, "[37]": {"system": "OVCAR-5"}, "[38]": {"system": "OVCAR-8"}, "[39]": {"system": "PC-3"}, "[40]": {"system": "RPMI-8226"}, "[41]": {"system": "RXF 393"}, "[42]": {"system": "SF-268"}, "[43]": {"system": "SF-295"}, "[44]": {"system": "SF-539"}, "[45]": {"system": "SK-MEL-28"}, "[46]": {"system": "SK-MEL-2"}, "[47]": {"system": "SK-MEL-5"}, "[48]": {"system": "SK-OV-3"}, "[49]": {"system": "SN12C"}, "[50]": {"system": "SNB-19"}, "[51]": {"system": "SNB-75"}, "[52]": {"system": "SR"}, "[53]": {"system": "SW-620"}, "[54]": {"system": "T47D"}, "[55]": {"system": "TK-10"}, "[56]": {"system": "U-251"}, "[57]": {"system": "UACC-257"}, "[58]": {"system": "UACC-62"}, "[59]": {"system": "UO-31"}}, "note": "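Exposure lasted 48 hours, with cells grown in 96-well plates and compounds tested at five concentrations. Here, GI50 denotes the concentration required for 50% inhibition of growth.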 Activity calls are given as the source filed them. Rule as the data show it: active = GI50 up to about 1.1 µM and inactive = higher."}
{"smiles": "N#C[BH2-][n+]1ccc(C(=O)NNCC(F)(F)F)cc1", "values": [{"measurement": "GI50", "setting": "[1]", "result": "> 100 µM (inactive)"}, {"measurement": "GI50", "setting": "[2]", "result": "> 100 µM (inactive)"}, {"measurement": "GI50", "setting": "[3]", "result": "> 100 µM (inactive)"}, {"measurement": "GI50", "setting": "[4]", "result": "> 100 µM (inactive)"}, {"measurement": "GI50", "setting": "[5]", "result": "> 100 µM (inactive)"}, {"measurement": "GI50", "setting": "[6]", "result": "> 100 µM (inactive)"}, {"measurement": "GI50", "setting": "[7]", "result": "> 100 µM (inactive)"}, {"measurement": "GI50", "setting": "[8]", "result": "> 100 µM (inactive)"}, {"measurement": "GI50", "setting": "[9]", "result": "> 100 µM (inactive)"}, {"measurement": "GI50", "setting": "[10]", "result": "> 100 µM (inactive)"}, {"measurement": "GI50", "setting": "[11]", "result": "> 100 µM (inactive)"}, {"measurement": "GI50", "setting": "[12]", "result": "> 100 µM (inactive)"}, {"measurement": "GI50", "setting": "[13]", "result": "> 100", "unit": "µM"}, {"measurement": "GI50", "setting": "[14]", "result": "> 100 µM (inactive)"}, {"measurement": "GI50", "setting": "[15]", "result": "> 100 µM (inactive)"}, {"measurement": "GI50", "setting": "[16]", "result": "> 100 µM (inactive)"}, {"measurement": "GI50", "setting": "[17]", "result": "> 100 µM (inactive)"}, {"measurement": "GI50", "setting": "[18]", "result": "> 100 µM (inactive)"}, {"measurement": "GI50", "setting": "[19]", "result": "> 100 µM (inactive)"}, {"measurement": "GI50", "setting": "[20]", "result": "> 100 µM (inactive)"}, {"measurement": "GI50", "setting": "[21]", "result": "> 100 µM (inactive)"}, {"measurement": "GI50", "setting": "[22]", "result": "> 100 µM (inactive)"}, {"measurement": "GI50", "setting": "[23]", "result": "> 100 µM (inactive)"}, {"measurement": "GI50", "setting": "[24]", "result": "> 100 µM (inactive)"}, {"measurement": "GI50", "setting": "[25]", "result": "> 100 µM (inactive)"}, {"measurement": "GI50", "setting": "[26]", "result": "> 100 µM (inactive)"}, {"measurement": "GI50", "setting": "[27]", "result": "> 100 µM (inactive)"}, {"measurement": "GI50", "setting": "[28]", "result": "> 100 µM (inactive)"}, {"measurement": "GI50", "setting": "[29]", "result": "> 100 µM (inactive)"}, {"measurement": "GI50", "setting": "[30]", "result": "> 100 µM (inactive)"}, {"measurement": "GI50", "setting": "[31]", "result": "> 100 µM (inactive)"}, {"measurement": "GI50", "setting": "[32]", "result": "> 100 µM (inactive)"}, {"measurement": "GI50", "setting": "[33]", "result": "> 100 µM (inactive)"}, {"measurement": "GI50", "setting": "[34]", "result": "> 100 µM (inactive)"}, {"measurement": "GI50", "setting": "[35]", "result": "> 100 µM (inactive)"}, {"measurement": "GI50", "setting": "[36]", "result": "> 100 µM (inactive)"}, {"measurement": "GI50", "setting": "[37]", "result": "> 100 µM (inactive)"}, {"measurement": "GI50", "setting": "[38]", "result": "> 100 µM (inactive)"}, {"measurement": "GI50", "setting": "[39]", "result": "> 100 µM (inactive)"}, {"measurement": "GI50", "setting": "[40]", "result": "> 100 µM (inactive)"}, {"measurement": "GI50", "setting": "[41]", "result": "> 100 µM (inactive)"}, {"measurement": "GI50", "setting": "[42]", "result": "> 100 µM (inactive)"}, {"measurement": "GI50", "setting": "[43]", "result": "> 100 µM (inactive)"}, {"measurement": "GI50", "setting": "[44]", "result": "> 100 µM (inactive)"}, {"measurement": "GI50", "setting": "[45]", "result": "> 100 µM (inactive)"}, {"measurement": "GI50", "setting": "[46]", "result": "> 100 µM (inactive)"}, {"measurement": "GI50", "setting": "[47]", "result": "> 100 µM (inactive)"}, {"measurement": "GI50", "setting": "[48]", "result": "> 100 µM (inactive)"}, {"measurement": "GI50", "setting": "[49]", "result": "> 100 µM (inactive)"}, {"measurement": "GI50", "setting": "[50]", "result": "> 100 µM (inactive)"}, {"measurement": "GI50", "setting": "[51]", "result": "> 100 µM (inactive)"}, {"measurement": "GI50", "setting": "[52]", "result": "> 100 µM (inactive)"}, {"measurement": "GI50", "setting": "[53]", "result": "> 100 µM (inactive)"}, {"measurement": "GI50", "setting": "[54]", "result": "> 100 µM (inactive)"}, {"measurement": "GI50", "setting": "[55]", "result": "> 100 µM (inactive)"}, {"measurement": "GI50", "setting": "[56]", "result": "> 100 µM (inactive)"}, {"measurement": "GI50", "setting": "[57]", "result": "> 100 µM (inactive)"}, {"measurement": "GI50", "setting": "[58]", "result": "> 100 µM (inactive)"}, {"measurement": "GI50", "setting": "[59]", "result": "> 100 µM (inactive)"}]}
